Assay results reported in patent US8268961B2, “Antibacterial peptides and analogues thereof” (Universita Degli Studi di Siena, priority 2004, dated 2012).
Where two headings read alike, the source gives them in different places. Positions of bridges follow the written chain, without caps; N, C: chain ends. Chains are numbered I, II in the order given. No end group written: not given here.

Assays:
[1] = tested on: Staphylococus aureus MIU-68A; assay type: cell-based, Staphylococcus aureus
Excerpt: MIC is defined as the lowest concentration, in an antibiotic dilution range, that inhibits visible bacterial growth. The importance of MIC sensitivity test is based on the principle that in vitro sensitivity provides a predictive indication of the in vivo efficacy of the antibiotic therapy. Values are expressed as molar concentration and compared to MIC values obtained with commercially available antibiotics such as amikacin, ceftriaxone and levofloxacin (Table 3).
(§1) Reference strains (Escherichia coli ATCC 25922, Pseudomonas aeruginosa ATCC 27853, Staphylococus aureus ATCC 25923 and Chryseobacterium meningosepticum CCUG 4310) and several recent clinical isolates (including multidrug-resistant ones) of various species (Table 2) were used for conventional susceptibility testing experiments. Minimum Inhibitory Concentration (MIC) was determined by a standard microdilution assay as recommended by the National Commitee for Clinical Laboratory Standards (NCCLS) using cation-supplemented Mueller-Hinton (MH) broth (Oxoid Ltd. Basingstoke, UK) and a bacterial inoculum of 5×10^4 CFU per well, in a final volume of 100 μl. Results were recorded by visual inspection after 24 h of incubation at 37° C.

P. aeruginosa ATCC 27853 = test: Minimal bactericidal concentration (MBC); assay type: cell-based
Description: as §1
(§2) The MBC was determined as recommended by the National Committee for Clinical Laboratory Standards (NCCLS) on strains of E. coli ATCC 25922 and P. aeruginosa ATCC 27853.

E. coli ATCC 25922 = test: Minimal bactericidal concentration (MBC); assay type: cell-based
Description: as §1, §2

E. coli strain TG1 = test: Test of antibacterial activity (colony growth inhibition) on E. coli strain TG1; assay type: cell-based; conditions: E. coli TG1, colony counting vs control without peptide
How it was run: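 E. coli TG1 (OD600 0.2) was incubated 75 min at 37 °C with peptide in PBS at 0.12–2 mg/ml. Cells were then diluted 1:1000, plated on 2×TY agar and grown overnight at 30 °C, and colonies were counted against an untreated control.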

[2] = tested on: Klebsiella oxytoca W99FI00049; assay type: cell-based
How it was run: (§3)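 Broth microdilution per NCCLS in cation-supplemented Mueller-Hinton broth, inoculum 5×10^4 CFU per well. MIC read visually as lowest concentration preventing visible growth after 24 h at 37° C; values expressed as molar concentration.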

[3] = tested on: Citrobacter freundii W99FI00007; assay type: cell-based
How it was run: as §3

[4] = tested on: Klebsiella pneumoniae W99FI0057; assay type: cell-based; conditions: W99FI0057
How it was run: as §3

[5] = tested on: Escherichia coli ATCC 25922; assay type: cell-based; conditions: ATCC 25922
How it was run: as §3

[6] = tested on: Klebsiella pneumoniae W03NO0078; assay type: cell-based
How it was run: as §3

[7] = tested on: Enterobacter cloacae W03AN0041; assay type: cell-based
How it was run: as §3

[8] = tested on: Burkholderia cepacia SMC71; assay type: cell-based
How it was run: as §3

[9] = tested on: Enterobacter aerogenes W03BG0067; assay type: cell-based
How it was run: as §3

[10] = tested on: Klebsiella pneumoniae W03BG0019; assay type: cell-based
How it was run: as §3

[11] = tested on: Pseudomonas aeruginosa 891; assay type: cell-based; conditions: 891
How it was run: as §3

[12] = tested on: Pseudomonas aeruginosa VA463/98; assay type: cell-based
How it was run: as §3

[13] = tested on: Escherichia coli W99FI0077; assay type: cell-based; conditions: W99FI0077
How it was run: as §3

[14] = tested on: Acinetobacter baumannii AB1MG; assay type: cell-based
How it was run: as §3

[15] = tested on: Staphylococcus aureus ATCC 25923; assay type: cell-based; conditions: Staphylococcus aureus ATCC 25923, reference strain
How it was run: as §3

[16] = tested on: Pseudomonas aeruginosa ATCC27853; assay type: cell-based; conditions: ATCC27853
How it was run: as §3

[17] = tested on: Escherichia coli W03NO0013; assay type: cell-based
How it was run: as §3

[18] = tested on: Proteus mirabilis W03VA1144; assay type: cell-based
How it was run: as §3

[19] = tested on: Acinetobacter baumannii AB7MG; assay type: cell-based
How it was run: as §3

[20] = tested on: Escherichia coli W03BG0025; assay type: cell-based
How it was run: as §3

[21] = tested on: Pseudomonas aeruginosa 885149; assay type: cell-based; conditions: 885149
How it was run: as §3

[22] = tested on: Pichia pastoris yeast strain X33; test: Effect on Pichia pastoris yeast colonies; assay type: cell-based
Description: To a volume of 50 μl of culture of Pichia pastoris grown 24 hour at 30° C. in YPD (Yeast Extract/Peptone/Dextrose) medium, 50 μl of MAP peptides (2 mg/ml) were added and left in incubation 150 min at 37° C. Subsequently, 50 μl of each incubation were plated on YPD solid medium and it was allowed to grow for 48 hours at 30° C. The number of colonies grown was compared with a control, where the yeast was not treated with the MAP.

I: QKKIRVRLSAKKA-OH / II: QKKIRVRLSAK / III: QKKIRVRLSA / IV: QKKIRVRLSA (amide I:11-IV:C, I:12-II:C, II:11-III:C) [M6, QKKIRVRLSA]
MIC (Molarity) [1]: 49 µM | MBC (minimal concentration able to kill 99.9% of the inoculum) compared with MIC (P. aeruginosa ATCC 27853): equal to the calculated values of MIC | MBC (minimal concentration able to kill 99.9% of the inoculum) compared with MIC (P. aeruginosa ATCC 27853; listed as QKKIRVRLSA): equal to the corresponding MIC values | MBC (minimal concentration able to kill 99.9% of the inoculum) compared with MIC (E. coli ATCC 25922): equal to the calculated values of MIC | MBC (minimal concentration able to kill 99.9% of the inoculum) compared with MIC (E. coli ATCC 25922; listed as QKKIRVRLSA): equal to the corresponding MIC values | Antibacterial activity on E. coli TG1 colony growth (E. coli strain TG1): good antibacterial activity | MIC (Molarity) [2]: 12 µM | MIC (Molarity) [3]: 3 µM | MIC (Molarity) [4]: 0.76 µM | MIC (Molarity) [5]: 1.5 µM | MIC (Molarity) [6]: 3 µM | MIC (Molarity) [7]: 0.76 µM | MIC (Molarity) [8]: 12 µM | MIC (Molarity) [9]: 1.5 µM | MIC (Molarity) [10]: 1.5 µM | MIC (Molarity) [11]: 1.5 µM | MIC (Molarity) [12]: 0.76 µM | MIC (Molarity) [13]: 1.5 µM | MIC (Molarity) [14]: 3 µM | MIC (Molarity) [15]: >4.9e-05 M | MIC (Molarity) ([15]; listed as QKKIRVRLSA): ~10^−5 M | MIC (Molarity) [16]: 0.76 µM | MIC (Molarity) [17]: 1.5 µM | MIC (Molarity) [18]: 12 µM | MIC (Molarity) [19]: 6 µM | MIC (Molarity) [20]: 1.5 µM | MIC (Molarity) [21]: 1.5 µM | Number of yeast colonies vs negative control [22]: did not differ from the negative control
